According to paper PMC10709440, “High-throughput ligand profile characterization in novel cell lines expressing seven heterologous insect olfactory receptors for the detection of volatile plant biomarkers” (Scientific Reports, 2023):
Like-named read-outs stand apart in the source and are kept apart here.

Experiments:
[1] = target: T1, Drosophila OR47a (Drosophila melanogaster, UniProt P81921); experiment: Calcium ion fluorescence (GCaMP6) assay, OR47a stable HEK293 cell line; format: cell-based; conditions: for Average response / OR47a response (VUAA1-normalized) at 1 μM / OR47a response (VUAA1-normalized) at 10 μM / OR47a response (VUAA1-normalized) at 100 μM: OR47a cell line; for Average response: mean of biological replicates; for OR47a response (VUAA1-normalized) at 1 μM: VOC concentration 1 μM; for OR47a response (VUAA1-normalized) at 10 μM: VOC concentration 10 μM; for OR47a response (VUAA1-normalized) at 100 μM: VOC concentration 100 μM
T1 construct: expressed in transfected cells
T1 sequence (P81921 1-385): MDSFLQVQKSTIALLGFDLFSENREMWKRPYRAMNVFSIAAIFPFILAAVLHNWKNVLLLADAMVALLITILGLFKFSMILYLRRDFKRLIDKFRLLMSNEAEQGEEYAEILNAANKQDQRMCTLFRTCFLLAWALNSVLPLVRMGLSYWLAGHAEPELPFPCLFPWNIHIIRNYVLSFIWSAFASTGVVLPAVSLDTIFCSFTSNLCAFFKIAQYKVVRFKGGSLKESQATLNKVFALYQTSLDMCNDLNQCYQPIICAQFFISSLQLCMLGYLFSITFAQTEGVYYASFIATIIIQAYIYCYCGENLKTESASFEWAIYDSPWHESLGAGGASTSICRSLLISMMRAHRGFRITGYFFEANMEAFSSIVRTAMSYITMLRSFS
T1 sequence (Q9VNB5 1-486 partner): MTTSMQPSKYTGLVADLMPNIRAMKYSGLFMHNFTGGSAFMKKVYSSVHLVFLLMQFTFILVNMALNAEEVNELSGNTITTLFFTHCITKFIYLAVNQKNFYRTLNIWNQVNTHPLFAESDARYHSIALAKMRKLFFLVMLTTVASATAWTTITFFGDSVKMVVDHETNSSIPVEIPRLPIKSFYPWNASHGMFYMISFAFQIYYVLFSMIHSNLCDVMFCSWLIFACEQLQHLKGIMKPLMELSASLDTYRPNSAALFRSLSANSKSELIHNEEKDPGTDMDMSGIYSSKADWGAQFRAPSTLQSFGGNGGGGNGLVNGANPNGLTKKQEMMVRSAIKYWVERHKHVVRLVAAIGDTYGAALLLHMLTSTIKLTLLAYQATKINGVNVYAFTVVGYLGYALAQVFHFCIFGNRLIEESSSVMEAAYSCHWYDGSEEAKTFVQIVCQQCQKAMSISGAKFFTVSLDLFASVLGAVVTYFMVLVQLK
In short: (§1)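 HEK293 lines stably expressing each Drosophila OR with GCaMP6, doxycycline-induced (1 μg/mL) 48 or 72 h. Fluorescence recorded 5 s baseline then 30 s after VOC injection at pH 7.3; ΔF=(FMAX−F0)/F0, normalized to 50 µM VUAA1 response per line, triplicate wells averaged; concentration series 0.01–100 μM.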

[2] = target: T2, Drosophila OR85b (Drosophila melanogaster, UniProt Q9VHQ7); experiment: Calcium ion fluorescence (GCaMP6) assay, OR85b stable HEK293 cell line; format: cell-based; conditions: for activation at 1 µM / activation at 10 µM / activation at 100 µM: HEK293, read-out: OR85b response (VUAA1-normalized response); for Average response / OR85b response (VUAA1-normalized) at 1 μM / OR85b response (VUAA1-normalized) at 10 μM / OR85b response (VUAA1-normalized) at 100 μM: OR85b cell line; for Average response: VUAA1-normalized response, mean of biological replicates; for OR85b response (VUAA1-normalized) at 1 μM: VOC concentration 1 μM; for OR85b response (VUAA1-normalized) at 10 μM: VOC concentration 10 μM; for OR85b response (VUAA1-normalized) at 100 μM: VOC concentration 100 μM
T2 construct: expressed in transfected cells
T2 sequence (Q9VHQ7 1-390): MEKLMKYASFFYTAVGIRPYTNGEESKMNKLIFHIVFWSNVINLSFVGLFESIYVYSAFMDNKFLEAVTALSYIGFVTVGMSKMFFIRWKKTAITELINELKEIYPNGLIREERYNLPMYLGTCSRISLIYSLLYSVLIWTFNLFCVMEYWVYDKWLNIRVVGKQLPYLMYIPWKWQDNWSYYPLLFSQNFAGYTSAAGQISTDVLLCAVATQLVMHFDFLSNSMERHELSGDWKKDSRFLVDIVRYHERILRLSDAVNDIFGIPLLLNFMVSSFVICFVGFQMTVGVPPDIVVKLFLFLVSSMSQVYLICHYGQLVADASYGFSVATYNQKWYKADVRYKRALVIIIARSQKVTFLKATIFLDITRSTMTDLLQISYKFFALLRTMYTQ
T2 sequence (Q9VNB5 1-486 partner): T1 sequence (Q9VNB5 1-486 partner)
In short: as §1

[3] = HEK293, read-out: OR47a response (VUAA1-normalized response)
[4] = ligand concentration 1 (unit not given), threshold 0.05, below shown as 0
[5] = ligand concentration 10 (unit not given), threshold 0.05, below shown as 0
[6] = ligand concentration 100 (unit not given), threshold 0.05, below shown as 0
[7] = concentration 1, normalized fluorescence change, values below 0.05 threshold given as 0
[8] = concentration 10, normalized fluorescence change, values below 0.05 threshold given as 0
[9] = concentration 100, normalized fluorescence change, values below 0.05 threshold given as 0
[10] = HEK293, read-out: OR47a Average response (VUAA1-normalized)

SMILES	activation at 1 µM [1, 3]	activation at 10 µM [1, 3]	activation at 100 µM [1, 3]	Average response ([1]; odorant cc. 1 µM)	Average response ([1]; odorant cc. 10 µM)	Average response ([1]; odorant cc. 100 µM)	DF norm AVERAGE OR47a [1, 4]	DF norm AVERAGE OR47a [1, 5]	DF norm AVERAGE OR47a [1, 6]	activation at 1 µM [2]	activation at 10 µM [2]	activation at 100 µM [2]	Average response ([2]; cc. 1 µM)	Average response ([2]; cc. 10 µM)	Average response ([2]; cc. 100 µM)	DF norm AVERAGE OR85b [2, 4]	DF norm AVERAGE OR85b [2, 5]	DF norm AVERAGE OR85b [2, 6]	further results
CC(=O)c1ccccc1 [acetophenone]	0%	0%	0%	0.0171	0.00	0.0243	0	0	0	0%	0%	0%	0.00	0.00	0.00	0	0	0	–
O=Cc1ccccc1 [benzaldehyde]	0%	0%	0%	0.03	0.00	0.00	0	0	0	6%	0%	0%	0.06	0.00	0.00	0.06124	0	0	–
C=CC(O)C/C=C\CC (stereo not drawn) [(5Z)-octa-1,5-dien-3-ol]	0%	0%	0%	0.00	0.00	0.00	–	–	–	7%	9%	0%	0.07	0.09	0.00	–	–	–	DF norm AVERAGE OR47a [1, 7]: 0; DF norm AVERAGE OR47a [1, 8]: 0; DF norm AVERAGE OR47a [1, 9]: 0; DF norm AVERAGE OR85b [2, 7]: 0.07163; DF norm AVERAGE OR85b [2, 8]: 0.08739; DF norm AVERAGE OR85b [2, 9]: 0
CCCCCO [1-pentanol]	0%	0%	0%	0.00	0.00	0.00	–	–	–	0%	0%	0%	0.00	0.00	0.00	–	–	–	DF norm AVERAGE OR47a [1, 7]: 0; DF norm AVERAGE OR47a [1, 8]: 0; DF norm AVERAGE OR47a [1, 9]: 0; DF norm AVERAGE OR85b [2, 7]: 0; DF norm AVERAGE OR85b [2, 8]: 0; DF norm AVERAGE OR85b [2, 9]: 0
CC1=CC[C@@H](C(C)(C)O)CC1 [alpha-terpineol]	0%	0%	0%	0.00	0.00	0.00	0	0	0	0%	0%	0%	0.05	0.03	0.02	0	0	0	–
Cc1ccccc1C [o-xylene]	–	–	–	0.00	0.00	0.00	0	0	0	–	–	–	0.08	0.03	0.08	0.08035	0	0.08274	OR47a response (VUAA1-normalized) at 1 μM [1]: 0.00; OR47a response (VUAA1-normalized) at 10 μM [1]: 0.00; OR47a response (VUAA1-normalized) at 100 μM [1]: 0.00; OR85b response (VUAA1-normalized) at 1 μM [2]: 0.08; OR85b response (VUAA1-normalized) at 10 μM [2]: 0.00; OR85b response (VUAA1-normalized) at 100 μM [2]: 0.08
CCOC(=O)CC [ethyl propionate]	0%	0%	0%	0.00	0.0134	0.0175	0	0	0	0%	0%	9%	0.00	0.037	0.09	0	0	0.09327	–
C=C1CCC2CC1C2(C)C (stereo not drawn) [beta-pinene]	0%	0%	0%	0.00	0.00	0.00	0	0	0	0%	10%	9%	0.00	0.10	0.09	0	0.09683	0.0913	–
CC/C=C\CCOC(C)=O [Z-3-hexenyl acetate]	–	–	–	–	–	–	–	–	–	–	–	–	–	–	–	–	–	–	OR47a response (VUAA1-normalized) at 1 μM [1]: 0.35; OR47a response (VUAA1-normalized) at 10 μM [1]: 0.67; OR47a response (VUAA1-normalized) at 100 μM [1]: 0.76; OR85b response (VUAA1-normalized) at 1 μM [2]: 0.15; OR85b response (VUAA1-normalized) at 10 μM [2]: 0.00; OR85b response (VUAA1-normalized) at 100 μM [2]: 0.00
CC1=CCC2C(C1)C2(C)C (stereo not drawn) [3-carene]	0%	0%	0%	0.00	0.00	0.03	–	–	–	0%	0%	0%	0.00	0.00	0.00	–	–	–	DF norm AVERAGE OR47a [1, 7]: 0; DF norm AVERAGE OR47a [1, 8]: 0; DF norm AVERAGE OR47a [1, 9]: 0; DF norm AVERAGE OR85b [2, 7]: 0; DF norm AVERAGE OR85b [2, 8]: 0; DF norm AVERAGE OR85b [2, 9]: 0
CCOC(=O)c1ccccc1 [ethyl benzoate]	0%	0%	10%	0.0468	0.00	0.10	0	0	0.09883	0%	0%	0%	0.0211	0.0371	0.0138	0	0	0	activation at 1 µM [1, 10]: 5%; activation at 10 µM [1, 10]: 0%; activation at 100 µM [1, 10]: 10%
